# Results reported in patent US5886185A, “Polyamine-linked acridine dimers” (Development Center for Biotechnoloy, priority 1997, dated 1999).
# Counter-ions that a name gives are not always drawn.
# Legend:
# water solubility = format: physicochemical; conditions: Table I
# [1] = test system: human COLO 205 solid tumors; assay: in vivo antitumor activity for human COLO 205 solid tumors; parameters: species or system human tumor in SCID mice
# Protocol: SCID mice (16-18 g, 4-5 weeks old) were obtained from the animal center at the medical center of National Taiwan University, Taipei, R.O.C. and allowed to acclimate to their new environment for one week. The mice were given a sterilized pellet diet and sterilized water ad libitum, and housed under specific pathogene-free conditions in a temperature range between 23°-25° C. and a humidity of about 50±10%. The lighting was automatically operated on a 12 hour light/dark cycle. COLO 205 cells were obtained from ATCC, propagated in culture medium, and subcutaneously inoculated into the dorsal site of the mice.
# After solid tumors were grown up to a size of about 1 gram, COLO 205F1 was isolated from the primary culture of the solid tumor and inoculated into the dorsal site of the mice. These tumors were grown to a size of approximately 200 mg (i.e., in a range of 100-300 mg). The mice were sorted according to body weight into groups including five mice. The compounds of Examples 5 and 6 were respectively resuspended in various solvents. The dosage of each compound was intraperitoneally (ip) or intravenously (iv) administered with different schedules. Tumor weights at the beginning of chemotherapy and at weekly intervals thereafter were estimated using two dimensional caliper measurements and calculated with the formula for an ellipsoid. Tumor weight was L X W^2 ×0.5, where L is the major axis and […] is the width of the tumor. The percentage of tumor growth (%TGI) was calculated according to the formula (1-(mean tumor weight of treated group/mean tumor weight of control group))×100. The tumor weights were corrected for tumor weight at the beginning of treatment. Tumor growth inhibition data were analyzed for statistical significance using the pooled variance t test. The tumor weights were monitored until termination of experiment.
# Several studies of salt preparations, different formulations, and various administration routes and schedules were performed for the compounds of example 5 or 6 in order to identify their in vivo antitumor activities for human COLO 205 solid tumors. Tumor growth inhibitor studies of the compound of Example 5 were carried out in 1% carboxymethyl-cellulose against human COLO 205 solid tumors in SCID mice by ip administration with a schedule of Q4D×3 or by iv administration with a schedule of (Q1D×5)×2. Tumor growth inhibition studies of the compound at Example 6 were carried out in distilled H2 O against human COLO 205 solid tumor in SCID mice by iv administration with a schedule of (Q2D×3)×2 or in 2.5% cremophor against human COLO 205 solid tumor in SCID mice by iv administration with a schedule of (Q2D×3)×2.
# pUC19 plasmid = assay: DNA intercalating assay (DNA band shift); format: binding
# Protocol: A culture of JM83 bacteria containing a pUC19 plasmid was grown in 500 mL of ampicillin culture medium, and harvested by centrifugation at 4000 rpm for 15 minutes at 4° C. The pellets were lysed by alkali method and the DNA plasmids were collected as the lower band (corresponding to the closed circular DNA) of a centrifuge tube after CsCl-ethidium bromide gradient centrifugation. This collection method is described in, for example, Molecular Cloning: A Laboratory Manual, Cold Spring Harbor Laboratory Press, (1989). After removal of ethidium bromide from the DNA plasmids with 1-butanol saturated with water, the CsCl was removed by dialysis with TE (pH 8.0) buffer.
# The pUC19 plasmid (1 μg in each reaction) was incubated with various concentrations of solutions containing different polyamine-linked acridine dimers for 30 minutes at 25° C. in 20 μL reaction mixtures (10 mM Tris-HCl, pH 7.4, 0.1 mM EDTA, and 5 mM NaCl). After reaction, the DNA mixture was run on a 1.0% agarose gel, which was stained with ethidium bromide and destained with distilled water. The shifts of the DNA bands were visualized using UV light and analyzed by photography. The DNA band shifting pattern formed a sigmoidal curve. The 50% shift concentration (SC50) corresponded to a 50% DNA band shift at the particular concentration, according to the curve of the DNA band-shifting photograph.
structure (smiles),measurement,setting,value
COc1ccc2nc3cc(Cl)ccc3c(NCCCN(C)CCCNc3c4ccc(Cl)cc4nc4ccc(OC)cc34)c2c1 [Example 12 (acetic acid salt)],solubility,water solubility,10000 µg/mL
COc1ccc2nc3cc(Cl)ccc3c(NCCCNCCCNc3c4ccc(Cl)cc4nc4ccc(OC)cc34)c2c1 [Example 6],solubility,water solubility,8000 µg/mL
same,"in vivo antitumor activity, dose-response relationship","[1]; 2.5% cremophor, iv, (Q2D×3)×2",had the dose-response relationship of in vivo antitumor activity
same,in vivo antitumor activity,"[1]; distilled H2O, iv, (Q2D×3)×2",demonstrated in vivo antitumor activity
"COc1cccc2c1C(=O)c1c(O)c3c(c(O)c1C2=O)C[C@@](O)(C(=O)CO)C[C@@H]3O[C@H]1C[C@H](N)[C@H](O)[C@H](C)O1 [adriarnycin, reference compound]",EC50,"pUC19 plasmid; pUC19 plasmid, 30 minutes, 25° C., pH 7.4, read-out: SC50 (50% shift concentration)",10 to 15 µM
COc1ccc2nc3cc(Cl)ccc3c(NCCCNCCCNc3c4ccc(Cl)cc4nc4ccc(OC)cc34)c2c1 [Example 5],in vivo antitumor activity,"[1]; 1% carboxymethyl-cellulose, ip, Q4D×3",did not show in vivo antitumor activity
same,in vivo antitumor activity,"[1]; 1% carboxymethyl-cellulose, iv, (Q1D×5)×2",did not show in vivo antitumor activity
"O=c1[nH]cc(F)c(=O)[nH]1 [Example 5-Fu, reference compound]",DNA intercalating activity,pUC19 plasmid; negative control,did not show DNA intercalating activity
